In US20190375778A1, “ADENOSINE DERIVATIVES FOR USE IN THE TREATMENT OF CANCER” (NuCana plc, priority 2016, published 2019):

Tests used:
Murine leukemia L1210 = test: Cell proliferation (Coulter count) assay, L1210; type: cell-based; details: Mus musculus, 48 h, read-out: absolute IC50, L1210
Excerpt: (§1) Lovo: cell line derived from a metastatic site in a patient with colon cancer MCF7: human oestrogen sensitive mammary epithelial cell line PC3: human prostate cancer cell line A549: cancerous lung tissue derived cells L1210: lymphoblast cell line derived from a mouse with lymphocytic leukaemia FM3A: mammary carcinoma murine cells CEM: human T-lymphoblasts, derived from the blood of a patient with acute lymphoblastic leukaemia HeLa: epithelial cells from a patient with cervical adenocarcinoma
(§2) Murine leukemia L1210, human T-lymphocyte CEM, and human cervix carcinoma HeLa cells were obtained from the American Type Culture Collection (ATCC) (Rockville, Md.). All cells were maintained in Dulbecco's modified Eagle's medium (DMEM) (Invitrogen, Carlsbad, Calif.) with 10% fetal bovine serum (FBS) (Biochrom AG, Berlin, Germany), 10 mM Hepes, and 1 mM sodiumpyruvate (Invitrogen). Cells were grown at 37° C. in a humidified incubator with a gas phase of 5% CO2. Monolayer cells (HeLa and […]) were seeded in 96-well microtiter plates (Nunc, Roskilde, Denmark) at 10 000 cells/well. After 24 h, an equal volume of fresh medium containing the test compounds was added. On day 5, cells were trypsinized and counted in a Coulter counter (Analis, Suarlee, Belgium). Suspension cells (L1210, CEM) were seeded in 96-well microtiter plates (Nunc) at 60 000 cells/well in the presence of a given amount of the test compounds. The cells were allowed to proliferate for 48 h (L1210) or 72 h (CEM) and were then counted in a Coulter counter. The 50% inhibitory concentration (IC50) was defined as the compound concentration required to reduce cell proliferation by 50%. The cytostatic activity of the compounds was determined after 3 days, as outlined above.

human T-lymphocyte CEM = test: Cell proliferation (Coulter count) assay, CEM; type: cell-based; details: 72 h, read-out: absolute IC50, CEM
Excerpt: as §1, §2

[1] = test system: human cervix carcinoma HeLa cells; test: Cell proliferation (Coulter count) assay, HeLa; type: cell-based; details: 120 h, cell count on day 5, read-out: absolute IC50, HeLa
Excerpt: as §1, §2

CCRFCEM = test: CellTiterGlo viability assay, CCRFCEM; type: cell-based; details: Homo sapiens, CCRF-CEM, 72 h, read-out: IC50 CCRFCEM
Description: (§3) In vitro viability assay were performed to assess the effects of compounds on cell viability in selected cell lines over ˜72 hrs using the CellTiterGlo (CTG, Promega-G7573) assay. The tests were performed in duplicates with treatment of compounds at 9 points, 3.16 folds titration in 96 well plates over ˜72 hrs. The compound starting concentrations were 198 μM. Cell viability assay using CellTiterGlo in 96-well plate were performed. Compound treatment 72 hrs, standard growth conditions, duplicates. Compounds were dissolved to 40 mM with thawed […]. Compounds were serially diluted at 3.16 fold in thawed DMSO, and warmed to 37° C. before being dissolved in media (2 μl+200 μl). After compounds were dissolved in media, media containing compounds were warmed to 37° C. in incubator and then compounds in media were added to cell plates (50 μl+50 μl) in duplicates. The compounds' final concentrations were from […] to 19.9 nM. All compound solubilities were checked and recorded again, then the plates were transferred to CO2 tissue culture incubator immediately and incubated for 3 days. DMSO final concentration is 0.5%.

HEL92.1.7 = test: CellTiterGlo viability assay, HEL92.1.7; type: cell-based; details: Homo sapiens, HEL 92.1.7, 72 h, read-out: IC50 HEL92.1.7
Description: as §3

KG-1 = test: CellTiterGlo viability assay, KG-1; type: cell-based; details: Homo sapiens, KG-1, 72 h, read-out: IC50 KG-1
Description: as §3

K562 = test: CellTiterGlo viability assay, K562; type: cell-based; details: Homo sapiens, K562, 72 h, read-out: IC50 K562
Description: as §3

MCF7 [2] = test: CellTiterGlo viability assay, MCF7; type: cell-based; details: Homo sapiens, MCF7, 72 h, read-out: IC50 MCF7
Description: as §3

MDAMB231 = test: CellTiterGlo viability assay, MDAMB231; type: cell-based, Human
Description: as §3

NCI-H929 = test: CellTiterGlo viability assay, NCI-H929; type: cell-based; details: Homo sapiens, NCI-H929, 72 h, read-out: IC50 NCI-H929
Description: as §3

MV4-11 = test: CellTiterGlo viability assay, MV4-11; type: cell-based; details: Homo sapiens, MV4-11, 72 h, read-out: IC50 MV4-11
Description: as §3

RL = test: CellTiterGlo viability assay, RL; type: cell-based; details: Homo sapiens, RL, 72 h, read-out: IC50 RL
Description: as §3

RPMI-8226 = test: CellTiterGlo viability assay, RPMI-8226; type: cell-based, Human; details: Homo sapiens, RPMI-8226, 72 h, read-out: IC50 RPMI-8226
Description: as §3

HL-60 = test: CellTiterGlo viability assay, HL-60; type: cell-based; details: Homo sapiens, HL-60, 72 h, read-out: IC50 HL-60
Description: as §3

Lovo = test: MTT cytotoxicity assay, Lovo; type: cell-based; details: Homo sapiens, 96 h compound exposure, read-out: absolute IC50, Lovo
Excerpt: as §1
(§4) Anti-tumour evaluation in MCF7, LoVo, A549 and PC3 cell lines was performed by MTT assay. Compounds were prepared as 0.1-100 mM stock solutions dissolved in DMSO and stored at −20° C. Cells were seeded into 96-well microtitre plates at a density of 5×10^3 cells per well and allowed 24 hours to adhere. Decimal compound dilutions were prepared in medium immediately prior to each assay (final concentration 0.1-100 μM). Experimental medium was DMEM+10% FCS (PC3 and Lovo) or RPMI+10% heat inactivated FCS (A549 and MCF7). Following 96 h compound exposure at 37° C., 5% CO2, MTT reagent (Sigma Aldrich) was added to each well (final concentration 0.5 mg/ml). Incubation at 37° C. for 4 h allowed reduction of MTT by viable cells to an insoluble formazan product. MTT was removed and formazan solubilised by addition of 10% Triton X-100 in PBS. Absorbance was read on a Tecan Sunrise spectrophotometer at 540 nm as a measure of cell viability; thus inhibition relative to control was determined (IC50).

MCF7 [3] = test: MTT cytotoxicity assay, MCF7; type: cell-based; details: Homo sapiens, 96 h compound exposure, read-out: absolute IC50, MCF7
Excerpt: as §1, §4

PC3 = test: MTT cytotoxicity assay, PC3; type: cell-based; details: Homo sapiens, PC-3, 96 h compound exposure, read-out: absolute IC50, PC3
Excerpt: as §1, §4

A549 = test: MTT cytotoxicity assay, A549; type: cell-based; details: Homo sapiens, 96 h compound exposure, read-out: absolute IC50, A549
Excerpt: as §1, §4

FM3A = test: Cytotoxicity, FM3A; type: cell-based, murine; details: Mus musculus, read-out: absolute IC50, FM3A
Excerpt: as §1

Compound	IC50 (Murine leukemia L1210) [µM]	IC50 (human T-lymphocyte CEM) [µM]	IC50 [1] [µM]	IC50 (CCRFCEM) [µM]	IC50 (HEL92.1.7) [µM]	IC50 (KG-1) [µM]	IC50 (K562) [µM]	IC50 (MCF7 [2]) [µM]	MI% MDAMB231 (MDAMB231; CellTiterGlo, 72 hrs) [%]	IC50 (MDAMB231; Homo sapiens, MDA-MB-231, 72 h, read-out: IC50 MDAMB231) [µM]	IC50 (NCI-H929) [µM]	IC50 (MV4-11) [µM]	IC50 (RL) [µM]	IC50 (RPMI-8226) [µM]	IC50 (HL-60) [µM]	IC50 (Lovo) [µM]	IC50 (MCF7 [3]) [µM]	IC50 (PC3) [µM]	IC50 (A549) [µM]	IC50 (FM3A) [µM]
CC(C)C[C@H](NP(=O)(OC[C@H]1O[C@@H](n2c(Cl)nc3c(N)ncnc32)C(O)C1O)Oc1cccc2ccccc12)C(=O)OCc1ccccc1 (stereo partly drawn) [H, 5′-([(Benzyloxy-L-leucin-N-yl)-naphth-1-yl]-phosphatyl) 8-chloroadenosine]	5 to 15	0.1 to 5	0.1 to 5	5 to 15	0.1 to 5	5 to 15	0.1 to 5	0.1 to 5	99	5 to 15	0.1 to 5	0.1 to 5	15 to 100	0.1 to 5	5 to 15					
CC(C)[C@H](NP(=O)(OC[C@H]1O[C@@H](n2c(Cl)nc3c(N)ncnc32)C(O)C1O)Oc1ccccc1)C(=O)OCc1ccccc1 (stereo partly drawn) [AA, 5′-([(Benzyloxy-L-valin-N-yl)-phenyl]-phosphatyl) 8-chloroadenosine]	15 to 100	15 to 100	5 to 15													0.1 to 5	0.1 to 5	15 to 100	15 to 100	15 to 100
CC(C)(C)COC(=O)C(C)(C)NP(=O)(OC[C@H]1O[C@@H](n2c(Cl)nc3c(N)ncnc32)C(O)C1O)Oc1ccccc1 (stereo partly drawn) [Y, 5′-([(Neopentyloxy-2,2-dimethylglycin-N-yl)-phenyl]-phosphatyl) 8-chloroadenosine]	15 to 100	15 to 100	15 to 100													0.1 to 5	15 to 100	0.1 to 5	> 100	15 to 100
Nc1ncnc2c1nc(Cl)n2[C@@H]1O[C@H](COP(=O)(N[C@@H](Cc2ccccc2)C(=O)OCc2ccccc2)Oc2ccccc2)C(O)C1O (stereo partly drawn) [U, 5′-([(Benzyloxy-L-phenylalanin-N-yl)-phenyl]-phosphatyl) 8-chloroadenosine]	15 to 100	5 to 15	0.1 to 5													0.1 to 5	0.1 to 5	0.1 to 5	0.1 to 5	15 to 100
